Source: ChEMBL document CHEMBL5584307, “Discovery of a Potent and Orally Bioavailable Xanthine Oxidase/Urate Transporter 1 Dual Inhibitor as a Potential Treatment for Hyperuricemia and Gout” (J Med Chem, 2024)
pIC50: −log10 of the molar value.

Tests used:
[1] = Clearance in overnight-fasted Sprague-Dawley rat at 1 mg/kg, iv measured upto 24 hrs by LC-MS/MS analysis; type: ADME, organism-based; details: in vivo
[2] = Stability in monkey liver microsomes assessed as half life at 1 uM measured upto 60 mins in presence of NADPH by LC-MS/MS analysis; type: ADME, Macaca mulatta, Microsome; details: rhesus monkey
[3] = biological target: T1, Cytochrome P450 1A2 (Homo sapiens, UniProt P05177); test: Inhibition of CYP1A2 in human liver microsomes in presence of NADPH by LC-MS/MS analysis; type: ADME, Microsome
T1 sequence (P05177 whole entry): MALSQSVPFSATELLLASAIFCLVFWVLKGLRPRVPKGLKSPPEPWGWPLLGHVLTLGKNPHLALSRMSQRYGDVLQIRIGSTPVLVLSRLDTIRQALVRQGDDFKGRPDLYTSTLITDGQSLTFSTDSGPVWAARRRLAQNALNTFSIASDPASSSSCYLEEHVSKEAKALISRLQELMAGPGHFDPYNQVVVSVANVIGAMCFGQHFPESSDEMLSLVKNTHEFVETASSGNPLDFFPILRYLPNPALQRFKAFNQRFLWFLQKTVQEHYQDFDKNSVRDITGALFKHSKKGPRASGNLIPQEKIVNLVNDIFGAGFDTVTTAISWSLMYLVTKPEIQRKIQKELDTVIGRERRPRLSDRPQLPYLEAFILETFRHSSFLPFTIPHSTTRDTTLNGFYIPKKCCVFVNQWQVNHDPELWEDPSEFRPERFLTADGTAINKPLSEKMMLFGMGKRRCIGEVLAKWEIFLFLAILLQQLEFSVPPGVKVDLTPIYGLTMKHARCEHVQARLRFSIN

[4] = biological target: T2, Cytochrome P450 2C8 (Homo sapiens, UniProt P10632); test: Inhibition of CYP2C8 in human liver microsomes in presence of NADPH by LC-MS/MS analysis; type: ADME, Microsome
T2 sequence (P10632 whole entry): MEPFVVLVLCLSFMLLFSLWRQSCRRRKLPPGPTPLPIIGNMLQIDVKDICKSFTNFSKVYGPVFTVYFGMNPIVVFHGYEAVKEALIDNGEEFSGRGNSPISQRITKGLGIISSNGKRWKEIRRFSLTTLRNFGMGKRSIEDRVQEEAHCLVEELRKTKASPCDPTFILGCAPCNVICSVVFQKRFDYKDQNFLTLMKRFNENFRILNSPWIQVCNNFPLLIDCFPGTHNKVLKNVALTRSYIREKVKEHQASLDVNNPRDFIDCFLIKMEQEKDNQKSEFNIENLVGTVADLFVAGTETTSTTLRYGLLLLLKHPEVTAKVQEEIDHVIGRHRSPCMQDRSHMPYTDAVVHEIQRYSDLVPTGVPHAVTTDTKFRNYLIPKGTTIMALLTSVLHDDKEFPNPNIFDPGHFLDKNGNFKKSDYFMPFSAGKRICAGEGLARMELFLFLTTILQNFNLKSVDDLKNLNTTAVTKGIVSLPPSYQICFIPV

[5] = Ratio of drug concentration in Sprague-Dawley rat kidney to plasma at 3 mg/kg, po measured for 24 hrs by LC-MS/MS analysis; type: ADME, organism-based; details: kidney and plasma
[6] = Genotoxicity in Salmonella typhimurium TA97 by Ames test; type: toxicity; details: salmonella enterica subsp. enterica serovar typhimurium
[7] = biological target: T3, Voltage-gated inwardly rectifying potassium channel KCNH2 (Homo sapiens, UniProt Q12809); test: Inhibition of hERG by electrophysiology; type: toxicity
T3 sequence (Q12809 whole entry): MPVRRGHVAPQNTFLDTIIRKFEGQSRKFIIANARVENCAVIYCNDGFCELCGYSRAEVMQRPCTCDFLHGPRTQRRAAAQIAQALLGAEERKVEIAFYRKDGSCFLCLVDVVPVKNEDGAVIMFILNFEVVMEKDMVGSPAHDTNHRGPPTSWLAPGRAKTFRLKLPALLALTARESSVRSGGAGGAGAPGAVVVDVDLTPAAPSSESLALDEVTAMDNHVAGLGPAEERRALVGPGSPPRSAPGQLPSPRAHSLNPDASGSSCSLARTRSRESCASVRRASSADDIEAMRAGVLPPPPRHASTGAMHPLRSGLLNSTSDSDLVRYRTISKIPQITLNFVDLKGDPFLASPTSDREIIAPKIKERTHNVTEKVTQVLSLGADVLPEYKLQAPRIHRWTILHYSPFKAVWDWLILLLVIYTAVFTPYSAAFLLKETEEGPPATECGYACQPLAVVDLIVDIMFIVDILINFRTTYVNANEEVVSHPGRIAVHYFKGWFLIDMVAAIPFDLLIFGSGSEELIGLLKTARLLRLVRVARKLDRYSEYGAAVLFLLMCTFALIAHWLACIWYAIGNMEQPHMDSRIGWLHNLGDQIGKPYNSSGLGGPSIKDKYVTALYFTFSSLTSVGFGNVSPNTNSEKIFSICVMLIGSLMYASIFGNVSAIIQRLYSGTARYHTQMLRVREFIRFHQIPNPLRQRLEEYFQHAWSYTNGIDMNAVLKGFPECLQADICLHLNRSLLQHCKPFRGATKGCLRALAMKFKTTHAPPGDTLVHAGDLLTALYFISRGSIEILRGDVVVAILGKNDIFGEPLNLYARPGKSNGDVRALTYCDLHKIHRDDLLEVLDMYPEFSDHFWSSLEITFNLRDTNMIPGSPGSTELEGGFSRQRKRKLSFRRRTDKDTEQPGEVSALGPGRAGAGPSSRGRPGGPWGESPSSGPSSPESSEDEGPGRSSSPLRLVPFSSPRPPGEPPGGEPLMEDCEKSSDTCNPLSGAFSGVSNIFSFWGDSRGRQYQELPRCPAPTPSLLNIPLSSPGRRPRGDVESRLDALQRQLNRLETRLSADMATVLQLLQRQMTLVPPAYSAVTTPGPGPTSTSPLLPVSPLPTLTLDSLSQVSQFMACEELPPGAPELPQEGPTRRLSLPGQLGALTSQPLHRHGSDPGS

[8] = Half life in Beagle dog at 5 mg/kg, po measured upto 24 hrs by LC-MS/MS analysis; type: ADME, organism-based, Canis lupus familiaris; details: in vivo
[9] = Half life in Cynomolgous monkey at 5 mg/kg, po measured upto 24 hrs by LC-MS/MS analysis; type: ADME, organism-based, Macaca fascicularis; details: cynomolgus monkey, in vivo
[10] = AUC (last) in Cynomolgous monkey at 5 mg/kg, po measured upto 24 hrs by LC-MS/MS analysis; type: ADME, organism-based, Macaca fascicularis; details: cynomolgus monkey, in vivo
[11] = AUC (last) in Cynomolgous monkey at 1 mg/kg, iv measured upto 24 hrs by LC-MS/MS analysis; type: ADME, organism-based, Macaca fascicularis; details: cynomolgus monkey, in vivo
[12] = Clearance in Cynomolgous monkey at 1 mg/kg, iv measured upto 24 hrs by LC-MS/MS analysis; type: ADME, organism-based, Macaca fascicularis; details: cynomolgus monkey, in vivo
[13] = Oral bioavailability in Cynomolgous monkey at 5 mg/kg measured upto 24 hrs by LC-MS/MS analysis; type: ADME, organism-based, Macaca fascicularis; details: cynomolgus monkey, in vivo
[14] = system: Sapajus apella; test: Urate lowering effect in Tufted capuchin monkey assessed as serum xanthine level at 30 mg/kg/day, po qd for 3 days consecutively; type: functional; details: time 3 day
[15] = Tmax in Tufted capuchin monkey at 10 mg/kg, po measured for 24 hrs by LC-MS/MS analysis; type: ADME, organism-based; details: sapajus apella, in vivo
[16] = Cmax in Tufted capuchin monkey at 10 mg/kg, po measured for 24 hrs by LC-MS/MS analysis; type: ADME, organism-based; details: sapajus apella, in vivo
[17] = Half life in Tufted capuchin monkey at 30 mg/kg, po measured for 24 hrs by LC-MS/MS analysis; type: ADME, organism-based; details: sapajus apella, in vivo
[18] = Half life in Tufted capuchin monkey at 100 mg/kg, po measured for 24 hrs by LC-MS/MS analysis; type: ADME, organism-based; details: sapajus apella, in vivo
[19] = Cmax in Tufted capuchin monkey at 100 mg/kg, po measured for 24 hrs by LC-MS/MS analysis; type: ADME, organism-based; details: sapajus apella, in vivo
[20] = biological target: T3, Voltage-gated inwardly rectifying potassium channel KCNH2; test: Inhibition of hERG transfected in HEK293 cells by patch clamp assay; type: toxicity, cell-based
[21] = Genotoxicity in Salmonella typhimurium TA98 by Ames test; type: toxicity; details: salmonella enterica subsp. enterica serovar typhimurium
[22] = Genotoxicity in Salmonella typhimurium TA102 by Ames test; type: toxicity; details: salmonella enterica subsp. enterica serovar typhimurium
[23] = Toxicity in rat assessed as increase in salivation at 120 mg/kg/day for 28 days; type: organism-based; details: in vivo, 672 h, time 28 day
[24] = Toxicity in rat assessed as decrease in body weight at 120 mg/kg/day for 28 days; type: organism-based; details: in vivo, 672 h, time 28 day
[25] = Toxicity in rat assessed as mucosal necrosis in pylorus at 120 mg/kg/day for 28 days by H and E staining based analysis; type: organism-based; details: in vivo, 672 h, time 28 day
[26] = Toxicity in rat assessed as increase in liver weight at 60 to 120 mg/kg/day for 28 days; type: organism-based; details: in vivo, 672 h, dose 60-120 mg/kg/day, time 28 day
[27] = Toxicity in cynomolgous monkey assessed as drug tolerance at 30 to 200 mg/kg/day for 28 days consecutively; type: organism-based, Macaca fascicularis; details: cynomolgus monkey, in vivo, 672 h; dose 30-200 mg/kg/day, time 28 day
[28] = Toxicity in cynomolgous monkey assessed as increase in fluid feces at 90 to 200 mg/kg/day for 28 days consecutively; type: organism-based, Macaca fascicularis; details: cynomolgus monkey, in vivo, 672 h; dose 90-200 mg/kg/day, time 28 day
[29] = AUC (0 to t) in male cynomolgous monkey at 30 mg/kg/day for 28 days; type: ADME, organism-based, Macaca fascicularis; details: cynomolgus monkey, in vivo, time 28 day
[30] = system: Sapajus apella; details: dose 30.0 mg/kg/day, route po, time 3.0 day

N#Cc1cc(-c2ccc(C(=O)O)c(O)c2)c2oc(F)cc2c1
clearance [1]: 1.51 mL/min/kg | half-life at 1 µM [2]: 2.87 h | pIC50 [3]: < 4.30 | pIC50 [4]: 4.91 | Kp at 24 h [5]: 0.56 | Activity [6]: Non-Toxic | pIC50 [7]: < 4.28 | half-life [8]: 2.82 h | half-life [9]: 7.9 h | AUC(0-t) at 24 h [10]: 34200 ng·h/mL | AUC(0-t) at 24 h [11]: 16100 ng·h/mL | clearance [12]: 0.993 mL/min/kg | bioavailability [13]: 42.4% | Activity [14]: 6.19 µg·h/mL | Tmax [15]: 0.8 h | Cmax [16]: 2.47 µg/mL | half-life [17]: 3.1 h | half-life [18]: 3.21 h | Cmax [19]: 145 µg/mL | pIC50 [20]: < 4.28 | Activity [21]: Non-Toxic | Activity [22]: Non-Toxic | Activity [23]: Toxic | Activity [24]: Toxic | Activity [25]: Toxic | Activity [26]: Toxic | Activity [27]: Non-Toxic | Activity [28]: Toxic | AUC(0-t) at 672 h [29]: 339000 ng·h/mL | AUC [30]: 504000 ng·h/mL
